Data published in patent US9359341B2, “Aldehyde derivative of substitute oxazolidinones” (WANBURY LTD., priority 2012, dated 2016).
pIC50: −log10 of the molar value. Read-outs that look alike come from different tables or passages of the source.

Experiments:
[1] = Stability in simulating intestinal fluid (SIF); assay type: physicochemical; settings: over 120 min
Protocol: On completion of incubation period, the solution is centrifuged and supernatant is taken. To the supernatant, ice cold acetonitrile containing IS is added, vortexed and injected into LCMS/MS.
API 4000, ESI Agilent 1100 column: Gemini Nx 100 mm×4.6 mm 5.μ; column temperature: 30° C.; eluent A: 0.1% formic acid in water, eluent B: acetonitrile; gradient: 0-2.5 min 95% A, 5% B; 2.5-2.6 min 5% A, 95% B; 2.6-4.2 min 95% A, 5% B; flow rate: 0.8 ml/min; ESI. Q1:464.098, Q3:144.255
Prepared 0.1 mol of citric acid and 0.2 mol of di sodium hydrogen phosphate in water. Buffer pH 2.2, 4 and 7.8 are prepared using citric acid and disodium hydrogen phosphate by adjusting the pH with 0.1N HCl or 1N NaOHpH 7.4: 8.89 g disodium hydrogen phosphate (Solution A) add to 1 liter of water, 1.5601 g sodium di-hydrogen phosphate (solution B) are made up to 1 liter with water; Solution A (19 ml) and Solution B (81 ml) are mixed. SIF/SGF: 2.38 g of SIF original powder (biorelavant media) is dissolved in 1 L of milliQ water. The pH of the solution is adjusted for SIF (7.4) and SGF (2.2) with 0.1N HCl. The ratios of the peak areas (F) at the respective time points in relation to the peak areas at the starting time are calculated
The peak area (F) is directly correlated to the amount of test compound which is quantified by the LC MS method. […]

CYP isoforms = assay: CYP inhibition assay, all isoforms (overall interpretation); assay type: in vitro ADME, human; settings: with other drug when administered
Protocol: (§1) The ability of substances to inhibit CYP1A2, CYP2C9, CYP2D6, CYP2C19, CYP2J2 and CYP3A4 in humans was investigated with pooled human liver microsomes as enzyme source in the presence of standard substrates (see below) which form CYP-isoform-specific metabolites.
(§2) Standard incubation mixtures comprise NADPH and substrates in 100 mM phosphate buffer (pH 7.4) in a total volume of 200 μl. Test compound are dissolved in acetonitrile. Incubated with pooled human liver microsomes at 37° C. for a defined time. The reactions are stopped by adding 100 μl of acetonitrile in which a suitable internal standard is always present. Precipitated proteins are removed by centrifugation, and the supernatants analyzed by LC-MS/MS. The data represents the extrapolated IC50 (μM) concentration derived from 3 μM.
(§3) This is an essential parameter to gauge drug-drug interactions.

[2] = test system: CYP1A2, CYP2C9, CYP2D6, CYP2C19, CYP2J2 and CYP3A4; assay: as above; assay type: in vitro ADME, human; settings: human, pooled human liver microsomes, pH 7.4; all assayed isoforms; minimal inhibition; read-out: inhibition of the CYP isoforms that were assayed
Protocol: as §1, §2, §3

[3] = Permeability in caco2 system; assay type: in vitro ADME; settings: human, Caco-2, caco2 system
caco2 system = assay: Permeability in caco2 system; assay type: in vitro ADME; settings: caco2 system
plasma protein = assay: Plasma protein binding (human); assay type: in vitro ADME
Protocol: A compound solution (1 mM in DMSO) (5 μL), according to the invention is added to the respective plasma matrices of rat or human or mouse (1 ml).
Add 150 ul of phosphate buffer to receiving side of the dialysis well. […] Precipitate with Acetonitrile and dilute samples prior to analysis in 1.5 ml polypropylene tubes. Remove 50 μl from the sample side of dialysis well and add 50 μl of phosphate buffer +300 μl of acetonitrile containing IS. Remove 50 μl from the buffer side of the dialysis well and add 50 μl of respective matrix plasma +300 μl of ACN. Then vortexed and centrifuged for 5 min, and supernatant is taken and injected into LCMS.
Different test concentration ranging from 0.1 μM to 20 μM are made in methanol:water (90:10). Test solutions are added to the premixed matrix containing plasma:phosphate buffer (50:50). Precipitate with 300 μl of ice cold acetonitrile containing IS, vortexes and centrifuged. Supernatant is taken and injected into LCMS. Percentage of plasma protein binding was obtained via Equation(2):% Fraction unbound=(concentration on the buffer side/concentration on the sample side)*100 Table-7

- pIC50 [2]: < 6.00
- Papp ([3]; read-out: Interpretation: permeability, classification based on Papp): > 20 ×10⁻⁶ cm/s
- Papp ([3]; read-out: Papp A > B): 17.4 ×10⁻⁶ cm/s
- Papp ([3]; read-out: Papp B > A): 40.3 ×10⁻⁶ cm/s
- Interpretation: Pgp substrate (efflux of >2) (caco2 system): observed to be a Pgp substrate.
- Observation: amount of test product (plasma protein): Not quantificable amount
- Observation: formed Rivaroxaban bound to plasma protein (plasma protein): found to be High bound to
Compound: O=CN(C[C@H]1CN(c2ccc(N3CCOCC3=O)cc2)C(=O)O1)C(=O)c1ccc(Cl)s1 [Compound formula B, 5-chloro-N-formyl-N-({(5S)-2-oxo-3-[4-(3-oxomorpholin-4-yl)phenyl]-1,3-oxazolidin-5-yl}methyl)thiophene-2-carboxamide]
- stability at simulating intestinal conditions [1]: stable at simulating intestinal conditions
- Interpretation of CYP inhibition studies (CYP isoforms): Low drug-drug interaction (compound formula-B
